Like-named read-outs stand apart in the source and are kept apart here.
Assay: pharmacokinetic study in mice (serum and brain, non-compartmental analysis)
Type: in vivo, mouse
Settings: for Kp / MRT / Tmax / half-life / k el / CL/F / Vd/F: male, CD-1, mouse; for Kp: brain and serum, read-out: Brain-to-serum AUC ratio; for half-life: read-out: t1/2 λz; for k el: read-out: λz (converted); for Vd/F: read-out: Vz/F
Protocol: They were housed in conditions of constant temperature with the 12:12 h light–dark cycle and free access to food and water. […] Moreover, the compound was dissolved in a mixture of DMSO/PEG400/water (1:4:5, v/v/v) and administered p.o. at a dose of 25 mg/kg. […] After allowing the blood to coagulate for 20 min at room temperature, the serum was separated using a 5000g Eppendorf miniSpin centrifuge (Germany) for 10 min. Samples were kept at −80 °C until they were analyzed. The First Ethical Committee on Animal Experimentation in Kraków granted approval for all animal treatments (license no. 270/2019). Concentrations of compound (R)-32 in mouse serum and brain tissue were measured using a liquid chromatography tandem mass spectrometry method (LC-MS/MS). Mouse brains were homogenized in distilled water at the ratio of 1:4 (w/v) using the ULTRA-TURRAX T10 basic tissue homogenizer (IKA, Germany). […] Samples were shaken for 10 min (IKA Vibrax VXR, Germany) and then centrifuged for 5 min at the speed of 8000g (Eppendorf miniSpin centrifuge, Germany). Supernatants were transferred into the autosampler vials, and a sample volume of 1 μL was injected into the LC-MS/MS system. Liquid chromatography was performed on an Exion LC AC HPLC system (Sciex, USA) with a Hypersil Gold C18 analytical column (3 × 50 mm, 5 μm, Thermo Scientific, USA). […] The initial mobile phase composition was 95% B and 5% A for the first 2 min with a linear gradient to 5% B in the next 2 min and then isocratic mode for 2 min with the following rapid change back to 95% B in 0.1 min. The remaining time of elution was set at 95% B. The whole HPLC operation lasted 10 min, and the flow rate was set to 0.4 mL/min. A QTRAP 4500 mass spectrometer (Sciex, USA) equipped with an ESI source, was used for detection. The mass spectrometric parameters were optimized to obtain maximum sensitivity at unit resolution. The ion source temperature was maintained at 450 °C, and the ion spray voltage was set to 5500 V. The CUR was set to 40 psi and the collision gas (CAD) to medium. The MRM experiments were conducted in the positive ion mode by monitoring the precursor to product ion transitions from m/z 422 to 247 (CE = 25 eV) and from m/z 422 to 106 (CE = 57 eV) for compound (R)-32 and from m/z 436 to 207 (CE = 42 eV) for IS. The working solutions for (R)-32 were created in methanol, while the stock solution was made in DMSO at a concentration of 1 mg/mL. […] Two distinct calibration curves were created for serum samples, one for greater concentrations and one for lower amounts. The precipitating agent was also diluted 10 times with calibrators and samples from the highest concentration range. […] The limits used for quantification were 0.001 to 5, 0.1 to 20 μg/mL for serum, and 0.005 to 25 μg/g for brain tissue. Samples with (R)-32 concentrations higher than the quantitative upper limit were 10-fold diluted using the blank matrix, which is either serum or brain homogenate. The method’s precision and accuracy fell within the bounds established by the FDA’s standards for the verification of bioanalytical techniques. During the normal analysis of the samples, no substantial matrix effect was identified, and no stability issues were encountered. The Analyst program version 1.7 was utilized for both data collecting and analysis. Noncompartmental analysis was used to estimate pharmacokinetic parameters of (R)-32 in serum and brain tissue. The area under the mean concentration versus time curve extrapolated to infinity (AUC0-inf) was estimated using the linear trapezoidal rule by combining trapezoid calculation of AUC0–t and the area extrapolated to infinity. The MRT was calculated from AUMC0-inf/AUC0-inf, where AUMC0-inf was estimated by calculation of the total area under the first-moment curve. The terminal slope (λz) was calculated by log–linear regression of the drug concentration versus time data in the terminal phase and the terminal half-life (t0.5) was calculated as 0.693/λz. […]

CC(=O)N[C@@H](C(=O)N1CCN(c2cccc(OC(F)(F)F)c2)CC1)c1ccccc1 [(R)-32, (R)-N-(2-Oxo-1-phenyl-2-(4-(3-(trifluoromethoxy)phenyl)piperazin-1-yl)ethyl)acetamide]
MRT after p.o. dosing in comparison to i.p. administration: ~4 fold | ratios of Cmax and AUC in serum after p.o. dosing compared to i.p. administration of the same dose (25 mg/kg): lower than 0.5 | AUC0–∞ (brain, 25 mg/kg i.p.): 274,802.60 ng·min/mL(g) | Cmax (brain, 25 mg/kg i.p.): 8266.67 ng/mL(g) | AUC0–∞ (brain, 25 mg/kg p.o.): 156,252.29 ng·min/mL(g) | Cmax (brain, 25 mg/kg p.o.): 1870.33 ng/mL(g) | AUC0–∞ (brain, 50 mg/kg i.p.): 689,733.29 ng·min/mL(g) | Cmax (brain, 50 mg/kg i.p.): 21,475.00 ng/mL(g) | Kp (intraperitoneal, 50 mg/kg): 1.5 | Kp (ip, 25 mg/kg i.p.): 1.2 | Kp (po, 25 mg/kg p.o.): 1.3 | MRT (ip, brain, 25 mg/kg i.p.): 45.5 min | Tmax (ip, brain, 25 mg/kg i.p.): 15 min | half-life (ip, brain, 25 mg/kg i.p.): 80.5 min | k el (ip, brain, 25 mg/kg i.p.): 0.00015 s⁻¹ | MRT (ip, brain, 50 mg/kg i.p.): 47.3 min | Tmax (ip, brain, 50 mg/kg i.p.): 15 min | half-life (ip, brain, 50 mg/kg i.p.): 62.3 min | k el (ip, brain, 50 mg/kg i.p.): 0.000183 s⁻¹ | CL/F (ip, serum, 25 mg/kg i.p.): 110 mL/min/kg | MRT (ip, serum, 25 mg/kg i.p.): 42.3 min | Tmax (ip, serum, 25 mg/kg i.p.): 15 min | Vd/F (ip, serum, 25 mg/kg i.p.): 12.3 L/kg | half-life (ip, serum, 25 mg/kg i.p.): 77.5 min | k el (ip, serum, 25 mg/kg i.p.): 0.00015 s⁻¹ | CL/F (ip, serum, 50 mg/kg i.p.): 108 mL/min/kg | MRT (ip, serum, 50 mg/kg i.p.): 33.6 min | Tmax (ip, serum, 50 mg/kg i.p.): 15 min | Vd/F (ip, serum, 50 mg/kg i.p.): 9.97 L/kg | half-life (ip, serum, 50 mg/kg i.p.): 64.3 min | k el (ip, serum, 50 mg/kg i.p.): 0.000183 s⁻¹ | MRT (po, brain, 25 mg/kg p.o.): 151 min | Tmax (po, brain, 25 mg/kg p.o.): 5 min | half-life (po, brain, 25 mg/kg p.o.): 133 min | k el (po, brain, 25 mg/kg p.o.): 8.33e-05 s⁻¹ | CL/F (po, serum, 25 mg/kg p.o.): 210 mL/min/kg | MRT (po, serum, 25 mg/kg p.o.): 156 min | Tmax (po, serum, 25 mg/kg p.o.): 5 min | Vd/F (po, serum, 25 mg/kg p.o.): 38.5 L/kg | half-life (po, serum, 25 mg/kg p.o.): 127 min | k el (po, serum, 25 mg/kg p.o.): 8.33e-05 s⁻¹ | Tmax (serum, other: both i.p. and p.o., after both i.p. and p.o. dosing): ≤ 15 min | AUC0–∞ (serum, 25 mg/kg i.p.): 228,063.48 ng·min/mL(g) | Cmax (serum, 25 mg/kg i.p.): 7613.33 ng/mL(g) | AUC0–∞ (serum, 25 mg/kg p.o.): 118,998.11 ng·min/mL(g) | Cmax (serum, 25 mg/kg p.o.): 1266.00 ng/mL(g) | AUC0–∞ (serum, 50 mg/kg i.p.): 464,877.54 ng·min/mL(g) | Cmax (serum, 50 mg/kg i.p.): 15,900.00 ng/mL(g)
